Data: patent US5534416A, “Fluorescent viability assay using cyclic-substituted unsymmetrical cyanine dyes” (Molecular Probes, Inc., priority 1993, dated 1996)
Like-named read-outs stand apart in the source and are kept apart here.

Columns and labels:
[1] = tested on: calf thymus DNA; conditions: Table 5; bound to excess calf thymus DNA (50 bp/dye); cited from earlier work
[2] = tested on: intact cells; conditions: cited from earlier work; for Retention / pH sensitivity / Loading: in words
[3] = tested on: nucleic acids; assay: Excitation/emission maxima of dyes complexed with nucleic acids; type: physicochemical; parameters: key: wavelength in nm; conditions: Table 2; dye complexed with nucleic acids
From the text: Dye I is lightly colored and is virtually non-fluorescent when diluted in aqueous solution according to the method of the invention. Dye I is highly membrane-permeant and labels all cells, whether live or dead. When Dye I binds with intracellular nucleic acid polymers such as DNA and RNA, the resultant dye-nucleic acid complex becomes extremely fluorescent upon illumination. The quantum yield of the preferred Dye I/DNA complex is greater than 0.02, typically greater than 0.1, preferably greater than 0.2, and more preferably greater than 0.3. Typically, Dye I combines with intracellular nucleic acids to give a green or red fluorescence. When excited at a wavelength between about 300 nm and about 500 nm, the dyes complexed with nucleic acids have an emission maximum between about 500 and about 610 nm (see Table 2). Preferably, Dye I complexed with nucleic acids has an emission maximum of between about 500 nm and about 535 nm, resulting in a true green fluorescent signal in cells of the sample where Dye I is present alone.

[4] = tested on: DNA; assay: Quantum yield of dye on DNA versus fluorescein; type: physicochemical; conditions: Table 2; Tris buffered saline pH 10; fluorescein assumed 0.92
From the text: ^ Quantum yield (QY) of dye on DNA (standard solution in Tris buffere
saline adjusted to pH 10) in comparison with fluorescein, which is assume
to have a quantum yield of 0.92 under the test conditions.
Factors such as degree of fluorescence enhancement with nucleic acid binding, self quenching, molar extinction coefficient, membrane permeability, intracellular partitioning, nucleic acid binding affinity, and quantum yield contribute to the overall fluorescence of nucleic acid stains in cells. Enhanced cell fluorescence obtained with Dye I is related to unexpected properties other than quantum yield alone. Quantum yield is determined as described above (foot note to Table 2). Normalized quantum yield is determined to illustrate the fold-change in quantum yield of Dye I compared with thiazole orange, a related cell-permeant dye. The normalized fluorescence values represent the quantum yield of each dye divided by the quantum yield of thiazole orange. Fluorescence per cell is also scaled to thiazole orange values for both E. coli and S. aureus to allow direct comparison between relative (normalized) quantum yield and relative (normalized) fluorescence/cell.

[5] = "probably", temperature not stated

C[n+]1c(C=C2C=CN(CCC[N+](C)(C)CCC[N+](C)(C)CCCN3C=CC(=Cc4sc5ccccc5[n+]4C)C=C3)C=C2)sc2ccccc21 [BOBO-1]
EM max [1]: 481 nm
EX max [1]: 462 nm

C[n+]1c(C=C2C=CN(CCC[N+](C)(C)CCC[N+](C)(C)CCCN3C=CC(=Cc4oc5ccccc5[n+]4C)c4ccccc43)c3ccccc32)oc2ccccc21 [YOYO-1]
EM max [1]: 509 nm
EX max [1]: 491 nm

C[n+]1c(C=C2C=CN(CCC[N+](C)(C)C)C=C2)sc2ccccc21 [BO-PRO-1]
EM max [1]: 481 nm
EX max [1]: 462 nm

C[n+]1c(C=C2C=CN(CCC[N+](C)(C)CCC[N+](C)(C)CCCN3C=CC(=Cc4sc5ccccc5[n+]4C)c4ccccc43)c3ccccc32)sc2ccccc21 [TOTO-1]
EM max [1]: 533 nm
EX max [1]: 514 nm

O=C(O)c1ccccc1C1c2cc(Cl)c(O)cc2Oc2cc(O)c(Cl)cc21 [H2 DCF]
Retention [2]: poor retention
pH sensitivity [2]: pH-insensitive

C[n+]1c(C=CC=C2C=CN(CCC[N+](C)(C)CCC[N+](C)(C)CCCN3C=CC(=CC=Cc4oc5ccccc5[n+]4C)c4ccccc43)c3ccccc32)oc2ccccc21 [YOYO-3]
EM max [1]: 631 nm
EX max [1]: 612 nm

C[n+]1c(C=C2C=CN(CCC[N+](C)(C)CCC[N+](C)(C)CCCN3C=CC(=Cc4oc5ccccc5[n+]4C)C=C3)C=C2)oc2ccccc21 [POPO-1]
EM max [1]: 456 nm
EX max [1]: 434 nm

C[n+]1c(C=CC=C2C=CN(CCC[N+](C)(C)C)c3ccccc32)oc2ccccc21 [YO-PRO-3]
EM max [1]: 631 nm
EX max [1]: 612 nm

CC[n+]1c(-c2ccccc2)c2cc(N=[N+]=[N-])ccc2c2ccc(N)cc21 [Ethidium monoazide]
EM max [1]: 615 nm
EX max [1]: 465 nm

Sulfofluorescein diacetate
Loading [2]: More difficult
Retention [2]: better

5-(and-6)-Carboxy-2',7'-dichloro-fluorescein diacetate
pH sensitivity [2]: Lower pH-

Carboxynaphtho-fluorescein diacetate
pH sensitivity [2]: sensitive

CC(=O)OCOC(=O)CN(CC(=O)OCOC(C)=O)Cc1c(O)ccc2c(C)cc(=O)oc12 [Calcein Blue AM]
T1/2 (time for half of dye to leak from intact cells) [2, 5]: < 15 min
Loading [2]: Easily loaded

CC(=O)Oc1ccc2c(c1)Oc1cc(OC(C)=O)ccc1C21OC(=O)c2ccccc21 [Fluorescein diacetate]
T1/2 (time for half of dye to leak from intact cells) ([2]; 37° C.): < 10 min
Loading [2]: Easily loaded
Retention [2]: poorly retained

CC[n+]1c(-c2ccccc2)c2cc(N)ccc2c2ccc(N)cc21 [Ethidium bromide]
EM max [1]: 595 nm
EX max [1]: 510 nm

CN1C=CC(=Cc2sc3ccccc3[n+]2C)c2cccc(-c3ccccc3)c21 [compound 72]
EM max [3]: 535
EX max [3]: 515
QY (DNA) [4]: 0.026

C[n+]1c(C=CC=C2C=CN(CCC[N+](C)(C)CCC[N+](C)(C)CCCN3C=CC(=CC=Cc4sc5ccccc5[n+]4C)C=C3)C=C2)sc2ccccc21 [BOBO-3]
EM max [1]: 602 nm
EX max [1]: 570 nm

C[n+]1c(C=CC=C2C=CN(CCC[N+](C)(C)CCC[N+](C)(C)CCCN3C=CC(=CC=Cc4sc5ccccc5[n+]4C)c4ccccc43)c3ccccc32)sc2ccccc21 [TOTO-3]
EM max [1]: 660 nm
EX max [1]: 642 nm

Carboxyfluorescein diacetate
T1/2 (time for half of dye to leak from intact cells) ([2]; 37° C.): < 30 min
Retention [2]: Moderate
pH sensitivity [2]: sensitive

CSC1=CC(=Cc2sc3ccccc3[n+]2C)c2ccccc2N1c1ccccc1 [compound 641]
EM max [3]: 526
EX max [3]: 503
QY (DNA) [4]: 0.35

C[n+]1c(C=CC=C2C=CN(CCC[N+](C)(C)C)C=C2)sc2ccccc21 [BO-PRO-3]
EM max [1]: 599 nm
EX max [1]: 575 nm

CCN(CC)C1=CC(=Cc2sc3ccccc3[n+]2C)c2ccc(OC)cc2N1c1ccccc1 [compound 760]
EM max [3]: 510
EX max [3]: 485
QY (DNA) [4]: 0.68

Carboxycalcein Blue AM
T1/2 (time for half of dye to leak from intact cells) [2, 5]: < 60 min
Loading [2]: Easily loaded

C[n+]1c(C=CC=C2C=CN(CCC[N+](C)(C)CCC[N+](C)(C)CCCN3C=CC(=CC=Cc4oc5ccccc5[n+]4C)C=C3)C=C2)oc2ccccc21 [POPO-3]
EM max [1]: 570 nm
EX max [1]: 534 nm

CCCCc1cc(C=C2Sc3ccccc3N2C)c2ccccc2[n+]1-c1cccs1 [compound 71]
EM max [3]: 526
EX max [3]: 508
QY (DNA) [4]: 0.31

COc1ccc2c(c1)N(c1ccccc1)C(Cl)=CC2=Cc1sc2ccccc2[n+]1C [compound 5103]
EM max [3]: 530
EX max [3]: 511
QY (DNA) [4]: 0.18

CN1C(=Cc2cc(N3CCOCC3)[n+](C)c3ccccc23)Sc2ccccc21 [compound 752]
EM max [3]: 518
EX max [3]: 494
QY (DNA) [4]: 0.51

C[n+]1c(C=C2C=C(c3ccccc3)N(c3ccccc3)c3ccccc32)sc2ccccc21 [compound 630]
EM max [3]: 544
EX max [3]: 517
QY (DNA) [4]: 0.19

C[n+]1c(C=C2C=CN(CCC[N+](C)(C)C)c3ccccc32)oc2ccccc21 [YO-PRO-1]
EM max [1]: 509 nm
EX max [1]: 491 nm

CN1C(c2ccccc2)=CC(=Cc2sc3ccccc3[n+]2C)c2ccccc21 [compound 639]
EM max [3]: 548
EX max [3]: 513
QY (DNA) [4]: 0.20

C[n+]1c(C=CC=C2C=CN(CCC[N+](C)(C)C)C=C2)oc2ccccc21 [PO-PRO-3]
EM max [1]: 567 nm
EX max [1]: 539 nm

C[n+]1c(C=C2C=CN(CCC[N+](C)(C)C)C=C2)oc2ccccc21 [PO-PRO-1]
EM max [1]: 455 nm
EX max [1]: 435 nm

C[n+]1c(C=C2C=C(Cl)N(C3CCCCC3)c3ccccc32)sc2ccccc21 [780 (Cl)]
EM max [3]: 536
EX max [3]: 513
QY (DNA) [4]: 0.09

C[n+]1c(C=C2C=CN(CCC[N+](C)(C)C)c3ccccc32)sc2ccccc21 [TO-PRO-1]
EM max [1]: 531 nm
EX max [1]: 515 nm

C[n+]1c(C=CC=C2C=CN(CCC[N+](C)(C)C)c3ccccc32)sc2ccccc21 [TO-PRO-3]
EM max [1]: 661 nm
EX max [1]: 642 nm

CC(=O)OCOC(=O)c1ccc2c(c1)C(=O)OC21c2ccc(OC(C)=O)cc2Oc2cc(OC(C)=O)ccc21 [5-Carboxyfluorescein diacetate AM]
T1/2 (time for half of dye to leak from intact cells) ([2]; 37° C.): < 30 min
Loading [2]: readily loaded
Retention [2]: Moderate

CC[N+](C)(CC)CCC[n+]1c(-c2ccccc2)c2cc(N)ccc2c2ccc(N)cc21 [Propidium iodide]
EM max [1]: 617 nm
EX max [1]: 536 nm
